For this data set the following is noted: 101.33 kPa, Liquid, Pycnometric method.

± gives the expanded uncertainty stated by the source.

What is called mass density is mass per unit of volume. Regarding `CCCCn1cc[n+](C)c1.F[B-](F)(F)F` [1-butyl-3-methylimidazolium tetrafluoroborate], the mass density is, setting by setting: (288.2 K) 1205.4 ± 2.5 kg/m3; (293.2 K) 1202.1 ± 2.5 kg/m3; (298.2 K) 1199.4 ± 2.5 kg/m3; (303.2 K) 1195.4 ± 2.5 kg/m3; (308.2 K) 1191.7 ± 2.5 kg/m3; (313.2 K) 1188 ± 2.5 kg/m3.

In the case of `CCCC[n+]1ccn(C)c1.O=S(=O)([N-]S(=O)(=O)C(F)(F)F)C(F)(F)F`, the mass density was found to be 1443.6 ± 6.1 kg/m3 (288.2 K); 1439.7 ± 6.1 kg/m3 (293.2 K); 1435.6 ± 6 kg/m3 (298.2 K); 1431.3 ± 6 kg/m3 (303.2 K); 1426.8 ± 6 kg/m3 (308.2 K); 1421.9 ± 6 kg/m3 (313.2 K).

Regarding `CCCCn1cc[n+](C)c1.F[P-](F)(F)(F)(F)F` [1-butyl-3-methylimidazolium hexafluorophosphate], the mass density by setting is: (288.2 K) 1375.8 ± 2.8 kg/m3; (293.2 K) 1371.5 ± 2.8 kg/m3; (298.2 K) 1368.4 ± 2.8 kg/m3; (303.2 K) 1363.5 ± 2.8 kg/m3; (308.2 K) 1359.3 ± 2.8 kg/m3; (313.2 K) 1355 ± 2.8 kg/m3.

These data come from the NIST ThermoML archive (doi:10.1021/je501083d).
